# Measurements taken from publication PMC3875168 (Journal of medicinal chemistry, 2013).
# Key:
# [1] = target: T1, STEP (Rattus norvegicus, UniProt P35234); assay: STEP inhibition in neuronal cultures, Western blotting of phospho-substrates; assay type: cell-based; settings: rat cortical neurons, 0.1, 1 or 10 µM for 1 h
# T1 sequence (P35234 53-369 limits assumed): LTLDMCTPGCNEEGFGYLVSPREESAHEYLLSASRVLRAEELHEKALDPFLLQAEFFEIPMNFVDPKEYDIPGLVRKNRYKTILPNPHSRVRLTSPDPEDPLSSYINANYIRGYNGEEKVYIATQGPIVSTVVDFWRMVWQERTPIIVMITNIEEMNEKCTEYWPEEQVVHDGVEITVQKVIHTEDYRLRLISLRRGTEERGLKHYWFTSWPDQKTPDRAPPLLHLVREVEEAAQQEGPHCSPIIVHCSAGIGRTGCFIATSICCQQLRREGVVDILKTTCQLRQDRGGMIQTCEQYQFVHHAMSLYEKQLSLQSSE
# [2] = BBB PAMPA; assay type: in vitro ADME; settings: PAMPA model system; data in SI
# [3] = target: LAR (Homo sapiens, UniProt P10586); assay: Selectivity assay, pNPP substrate; assay type: biochemical; settings: relative to STEP Ki
# [4] = target: T2, CD45 (Homo sapiens, UniProt P08575); assay: Selectivity assay, pNPP substrate; assay type: biochemical; settings: relative to STEP Ki
# T2 sequence (P08575 26-1306): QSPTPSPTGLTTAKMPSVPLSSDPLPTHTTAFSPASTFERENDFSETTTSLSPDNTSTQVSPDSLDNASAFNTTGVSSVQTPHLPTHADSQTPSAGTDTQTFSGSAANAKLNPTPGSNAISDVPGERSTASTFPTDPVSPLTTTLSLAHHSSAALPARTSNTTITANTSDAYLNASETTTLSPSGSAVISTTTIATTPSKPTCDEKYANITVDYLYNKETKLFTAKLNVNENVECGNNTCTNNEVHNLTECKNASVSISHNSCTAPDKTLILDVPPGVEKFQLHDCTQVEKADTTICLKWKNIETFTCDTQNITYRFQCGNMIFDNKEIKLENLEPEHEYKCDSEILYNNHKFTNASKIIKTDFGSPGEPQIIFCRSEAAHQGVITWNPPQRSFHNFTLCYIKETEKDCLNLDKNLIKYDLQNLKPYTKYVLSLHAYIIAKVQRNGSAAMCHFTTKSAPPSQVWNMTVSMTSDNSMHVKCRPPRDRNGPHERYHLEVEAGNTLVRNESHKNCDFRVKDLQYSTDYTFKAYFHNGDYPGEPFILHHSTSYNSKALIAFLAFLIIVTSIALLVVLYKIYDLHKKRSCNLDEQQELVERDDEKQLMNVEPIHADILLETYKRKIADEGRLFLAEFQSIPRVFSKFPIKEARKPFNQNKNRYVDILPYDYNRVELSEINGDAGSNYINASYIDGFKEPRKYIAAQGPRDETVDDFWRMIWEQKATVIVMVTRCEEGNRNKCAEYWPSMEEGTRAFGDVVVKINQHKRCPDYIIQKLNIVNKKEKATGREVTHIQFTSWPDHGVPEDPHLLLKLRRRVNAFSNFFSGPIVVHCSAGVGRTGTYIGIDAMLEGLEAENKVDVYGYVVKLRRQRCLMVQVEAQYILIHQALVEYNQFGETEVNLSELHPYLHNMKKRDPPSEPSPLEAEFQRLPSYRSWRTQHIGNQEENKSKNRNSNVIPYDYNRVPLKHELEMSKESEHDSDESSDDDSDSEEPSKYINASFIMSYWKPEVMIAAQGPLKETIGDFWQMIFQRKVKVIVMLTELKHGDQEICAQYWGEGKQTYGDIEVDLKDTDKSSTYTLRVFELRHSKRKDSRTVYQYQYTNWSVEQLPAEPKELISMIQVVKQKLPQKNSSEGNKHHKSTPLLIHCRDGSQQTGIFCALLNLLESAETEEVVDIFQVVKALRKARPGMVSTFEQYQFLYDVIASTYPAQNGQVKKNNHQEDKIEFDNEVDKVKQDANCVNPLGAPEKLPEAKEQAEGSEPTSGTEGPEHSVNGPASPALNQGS
# [5] = Solubility of the inhibitor; assay type: physicochemical; settings: hydroxyl group at the benzylic position, compared with 12p
# [6] = target: T3, MKP5 (Homo sapiens, UniProt Q9Y6W6); assay: Selectivity assay, DiFMUP substrate; assay type: biochemical; settings: relative to STEP Ki
# T3 sequence (Q9Y6W6 1-482): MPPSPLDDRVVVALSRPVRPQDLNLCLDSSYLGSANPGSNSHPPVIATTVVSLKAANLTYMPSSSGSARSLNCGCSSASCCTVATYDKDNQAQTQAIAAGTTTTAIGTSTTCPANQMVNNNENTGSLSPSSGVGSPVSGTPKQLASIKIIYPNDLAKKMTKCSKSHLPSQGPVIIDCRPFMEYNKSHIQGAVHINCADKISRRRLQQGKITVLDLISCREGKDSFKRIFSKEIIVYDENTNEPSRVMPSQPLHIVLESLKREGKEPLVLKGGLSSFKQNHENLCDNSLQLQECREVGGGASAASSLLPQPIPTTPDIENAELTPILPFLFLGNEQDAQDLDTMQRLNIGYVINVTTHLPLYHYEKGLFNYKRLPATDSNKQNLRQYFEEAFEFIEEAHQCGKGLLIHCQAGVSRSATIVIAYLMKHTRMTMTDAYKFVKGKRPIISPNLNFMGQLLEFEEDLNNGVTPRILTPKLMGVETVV
# LAR, sequence (P10586 30-1907): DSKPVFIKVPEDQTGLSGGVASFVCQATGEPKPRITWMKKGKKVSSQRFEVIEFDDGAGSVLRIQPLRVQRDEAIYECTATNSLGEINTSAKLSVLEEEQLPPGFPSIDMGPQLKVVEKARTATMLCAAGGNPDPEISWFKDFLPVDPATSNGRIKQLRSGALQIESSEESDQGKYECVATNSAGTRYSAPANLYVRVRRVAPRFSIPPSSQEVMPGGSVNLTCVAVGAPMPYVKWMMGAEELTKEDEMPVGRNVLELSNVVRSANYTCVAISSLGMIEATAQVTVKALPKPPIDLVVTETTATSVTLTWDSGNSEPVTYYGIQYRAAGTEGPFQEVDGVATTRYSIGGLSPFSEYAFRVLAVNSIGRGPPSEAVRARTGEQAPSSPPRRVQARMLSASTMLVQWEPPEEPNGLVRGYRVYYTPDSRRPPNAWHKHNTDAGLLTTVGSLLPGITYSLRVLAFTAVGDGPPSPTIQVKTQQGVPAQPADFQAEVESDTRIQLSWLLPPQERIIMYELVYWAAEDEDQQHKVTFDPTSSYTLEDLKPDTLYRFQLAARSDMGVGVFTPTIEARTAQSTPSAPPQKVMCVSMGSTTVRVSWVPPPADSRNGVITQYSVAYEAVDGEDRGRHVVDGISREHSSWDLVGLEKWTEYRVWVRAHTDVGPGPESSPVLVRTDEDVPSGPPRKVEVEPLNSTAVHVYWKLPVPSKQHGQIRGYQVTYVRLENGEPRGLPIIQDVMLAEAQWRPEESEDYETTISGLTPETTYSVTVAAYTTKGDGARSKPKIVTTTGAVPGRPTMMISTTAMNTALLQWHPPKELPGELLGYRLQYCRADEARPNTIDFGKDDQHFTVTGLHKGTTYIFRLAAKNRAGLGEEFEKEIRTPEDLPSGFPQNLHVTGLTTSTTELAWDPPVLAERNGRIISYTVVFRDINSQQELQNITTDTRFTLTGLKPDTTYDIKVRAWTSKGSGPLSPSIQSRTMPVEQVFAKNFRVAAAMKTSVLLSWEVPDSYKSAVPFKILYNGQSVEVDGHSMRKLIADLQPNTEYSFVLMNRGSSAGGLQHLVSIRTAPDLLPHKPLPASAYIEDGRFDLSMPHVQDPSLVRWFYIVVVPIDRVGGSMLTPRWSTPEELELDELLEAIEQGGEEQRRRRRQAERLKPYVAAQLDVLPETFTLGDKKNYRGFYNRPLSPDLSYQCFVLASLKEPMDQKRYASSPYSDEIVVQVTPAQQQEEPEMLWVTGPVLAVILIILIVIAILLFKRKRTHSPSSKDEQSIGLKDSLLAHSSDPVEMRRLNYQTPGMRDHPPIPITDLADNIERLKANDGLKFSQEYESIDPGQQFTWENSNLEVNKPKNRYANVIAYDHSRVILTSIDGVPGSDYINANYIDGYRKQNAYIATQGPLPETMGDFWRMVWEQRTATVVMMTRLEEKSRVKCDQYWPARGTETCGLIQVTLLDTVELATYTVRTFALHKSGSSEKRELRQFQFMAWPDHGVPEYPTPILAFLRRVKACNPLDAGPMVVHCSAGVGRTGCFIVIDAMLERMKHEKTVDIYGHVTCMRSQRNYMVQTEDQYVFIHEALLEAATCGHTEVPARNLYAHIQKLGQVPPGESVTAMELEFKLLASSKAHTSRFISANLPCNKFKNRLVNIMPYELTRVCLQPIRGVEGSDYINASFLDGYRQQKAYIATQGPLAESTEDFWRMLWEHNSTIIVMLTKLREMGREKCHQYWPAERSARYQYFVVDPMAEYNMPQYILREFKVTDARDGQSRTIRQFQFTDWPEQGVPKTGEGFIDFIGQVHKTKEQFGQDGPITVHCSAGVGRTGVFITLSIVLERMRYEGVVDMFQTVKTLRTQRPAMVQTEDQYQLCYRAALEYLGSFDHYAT
smiles,measurement,setting,value
"O=P(O)(O)[C@H](O)c1ccc(-c2cccc([C@@H](O)c3ccc(Cl)c(Cl)c3)c2)cc1 [12s, ((S)-(3'-((R)-(3,4-dichlorophenyl)(hydroxy)methyl)-[1,1'-biphenyl]-4-yl)(hydroxy)methyl)phosphonic Acid]","phosphorylation levels of STEP substrates GluN2B, Pyk2 and ERK1/2",[1],Clear increases in the phosphorylation levels
same,ability to passively permeate the blood-brain barrier,[2],did not possess the ability to passively cross the BBB
"O=P(O)(O)C(F)(F)c1cccc(-c2cccc(C3CCCCC3)c2O)c1 [11m, ((3'-Cyclohexyl-2'-hydroxy-[1,1'-biphenyl]-3-yl)difluoromethyl)phosphonic Acid]",selectivity LAR,[3],>45
same,selectivity CD45,[4],>25
"O=P(O)(O)C(F)(F)c1ccc(-c2cccc(C(O)c3ccc(Cl)c(Cl)c3)c2)cc1 (stereo not shown) [12q, ((3'-((3,4-Dichlorophenyl)(hydroxy)methyl)-[1,1'-biphenyl]-4-yl)difluoromethyl)phosphonic Acid]",solubility of the inhibitor,[5],increased the solubility
"O=P(O)(O)[C@H](O)c1ccc(-c2cccc([C@H](O)c3ccc(Cl)c(Cl)c3)c2)cc1 [12t, ((S)-(3'-((S)-(3,4-dichlorophenyl)(hydroxy)methyl)-[1,1'-biphenyl]-4-yl)(hydroxy)methyl)phosphonic Acid]",selectivity MKP5,[6],>65
same,"phosphorylation levels of STEP substrates GluN2B, Pyk2 and ERK1/2",[1],more modest effects
